Data as given in US20230002361A1, “2H-INDAZOLE DERIVATIVES AND THEIR USE IN THE TREATMENT OF DISEASE” (BIOGEN MA INC., priority 2019, published 2023).

Legend:
IRAK4 [1] = biological target: T1, IRAK4 (Homo sapiens, UniProt Q9NWZ3); assay: IRAK4 MSD Biochemical Assay (10 μM ATP, 2 h); settings: 0.1 nM IRAK4, 2 h, room temperature
T1 construct: with 0.1 nM IRAK4, 1.6 μM of biotinylated peptide substrate and 10 μM ATP
T1 sequence (Q9NWZ3 1-460): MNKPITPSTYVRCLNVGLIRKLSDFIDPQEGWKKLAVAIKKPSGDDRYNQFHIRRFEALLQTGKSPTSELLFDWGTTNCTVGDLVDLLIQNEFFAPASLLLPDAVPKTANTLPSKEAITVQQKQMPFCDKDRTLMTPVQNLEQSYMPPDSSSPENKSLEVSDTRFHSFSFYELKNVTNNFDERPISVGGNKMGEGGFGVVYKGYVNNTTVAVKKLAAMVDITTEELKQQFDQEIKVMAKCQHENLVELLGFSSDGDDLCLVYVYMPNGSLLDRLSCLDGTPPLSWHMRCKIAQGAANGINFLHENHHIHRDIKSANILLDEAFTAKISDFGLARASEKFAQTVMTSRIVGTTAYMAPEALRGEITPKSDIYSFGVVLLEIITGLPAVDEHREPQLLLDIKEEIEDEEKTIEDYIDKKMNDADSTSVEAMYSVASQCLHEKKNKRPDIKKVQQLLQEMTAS
Method: The 2-hour 10 μM ATP Biochemical Assay employs a MesoScale Detection (MSD) format. The kinase reaction is based on the IRAK4 phosphorylation of a biotin labeled peptide (IRAK1 activation loop sequence 360-389).
The kinase reaction in 30 μl is carried out in wells of a 384 well polypropylene assay plate, with 0.1 nM IRAK4, 1.6 μM of biotinylated peptide substrate and 10 μM ATP in 50 mM Hepes, pH 7.5, 60 mM NaCl, 5 mM MgCl2, 0.25 mM MnCl2, 2 mM DTT, 0.01% BSA, 0.01% BSA, and 1% DMSO (from compound DMSO stocks), for 2 hour at room temperature. The activity is quenched with 11 μl of 70 mM EDTA, pH 8.
To detect the phosphorylated biotinylated peptide substrate, 30 μl of the quenched reaction mixture is added to equivalent wells of a 384 well streptavidin coated MesoScale plate (Meso Scale Discovery #L21SA-1). After a 1 hour incubation of the plate for 1 hour at room temperature with gentle mixing, the plate wells are washed 3 times with 50 mM Tris, pH 7.5, 150 mM NaCl, 0.02% Tween-20.
A 25 μl volume of 1:500 anti-P-Threonine Rabbit polyclonal Antibody plus 1:500 Goat-anti-Rabbit Sulfo Tag Antibody (Meso Scale Discovery R32AB-1) in 50 mM Tris, pH 7.5, 150 mM NaCl, 0.02% Tween-20 plus 2% BSA is then added to each well. After a 1-hour incubation of the plate for 1 hour at room temperature with gentle mixing, the plate wells are washed, 3 times with 50 mM Tris, pH 7.5, 150 mM NaCl, 0.02% Tween-20. A 40 μl volume of 2×MSD Read Buffer (Meso Scale Discovery R92TC-1) is added to each well, and the plate is read immediately in an MSD Plate Reader (Meso Scale Discovery).

IRAK4 [2] = biological target: T1, IRAK4; assay: IRAK4 MSD Biochemical Assay (1 mM ATP, 2 h); settings: room temperature, read-out: IRAK4 MSD Biochemical Assay (1 mM ATP, 2 h) IC50
Method in brief: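 Run with 1 mM ATP and […] for 2 h, then quenched with EDTA, pH 8. The phosphorylated biotinylated peptide was captured on streptavidin plates and detected with anti-phospho-threonine antibody plus Sulfo-Tag secondary by MSD electrochemiluminescence.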

MDR1 (P-gp) = biological target: T2, MDR1 (P-gp) (Homo sapiens, UniProt P08183); assay: MDR1-MDCK assay (efflux ratio); format: in vitro ADME; settings: human, MDCK-MDR1, 1 μM compound, 120 minutes incubation; read-out: MDR1-MDCK Efflux Ratio; (B-A/A-B)
T2 construct: host or cells: MDCK cells
T2 sequence (P08183 whole entry): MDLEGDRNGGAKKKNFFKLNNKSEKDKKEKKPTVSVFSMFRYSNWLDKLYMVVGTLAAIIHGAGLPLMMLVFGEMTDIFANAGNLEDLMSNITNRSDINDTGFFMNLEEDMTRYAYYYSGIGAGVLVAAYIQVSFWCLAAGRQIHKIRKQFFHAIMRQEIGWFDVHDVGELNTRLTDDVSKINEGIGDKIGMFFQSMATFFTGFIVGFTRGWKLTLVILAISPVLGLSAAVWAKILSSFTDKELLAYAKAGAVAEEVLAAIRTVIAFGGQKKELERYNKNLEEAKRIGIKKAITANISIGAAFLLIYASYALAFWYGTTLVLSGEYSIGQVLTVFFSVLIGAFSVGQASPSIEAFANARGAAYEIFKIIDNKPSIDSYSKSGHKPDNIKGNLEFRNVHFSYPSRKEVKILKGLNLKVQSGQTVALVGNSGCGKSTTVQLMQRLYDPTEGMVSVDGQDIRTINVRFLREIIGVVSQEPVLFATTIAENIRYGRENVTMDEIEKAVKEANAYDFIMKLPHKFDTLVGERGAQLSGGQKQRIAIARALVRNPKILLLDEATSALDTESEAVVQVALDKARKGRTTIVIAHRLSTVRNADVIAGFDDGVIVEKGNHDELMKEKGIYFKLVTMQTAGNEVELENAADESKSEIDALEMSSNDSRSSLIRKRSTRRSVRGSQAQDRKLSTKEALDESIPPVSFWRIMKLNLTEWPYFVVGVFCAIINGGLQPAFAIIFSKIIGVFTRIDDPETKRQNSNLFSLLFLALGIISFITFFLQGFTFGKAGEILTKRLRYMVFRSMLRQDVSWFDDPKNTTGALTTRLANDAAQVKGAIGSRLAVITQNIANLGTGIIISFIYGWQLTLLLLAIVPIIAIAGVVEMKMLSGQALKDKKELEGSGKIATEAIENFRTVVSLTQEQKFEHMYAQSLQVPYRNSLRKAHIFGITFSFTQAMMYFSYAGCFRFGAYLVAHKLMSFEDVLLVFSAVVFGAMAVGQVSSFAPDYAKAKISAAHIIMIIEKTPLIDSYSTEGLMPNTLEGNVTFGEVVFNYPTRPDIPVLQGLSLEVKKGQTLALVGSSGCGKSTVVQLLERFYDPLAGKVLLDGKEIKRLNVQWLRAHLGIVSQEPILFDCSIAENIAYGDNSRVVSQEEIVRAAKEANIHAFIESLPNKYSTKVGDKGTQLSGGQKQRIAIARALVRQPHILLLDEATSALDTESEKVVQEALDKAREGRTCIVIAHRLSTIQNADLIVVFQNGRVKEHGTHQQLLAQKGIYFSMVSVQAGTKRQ
Method in brief: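 Human MDR1-transfected MDCK monolayers, cultured 7 days on transwell inserts with TEER checked, were dosed with compound at 1 μM in HBSS-HEPES. Transport was measured in both A-B and B-A directions. Efflux ratio came from the directional permeabilities, with mass balance also calculated.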

| IC50 (IRAK4 [1]) [nM] | IC50 (IRAK4 [2]) [nM] | efflux ratio at 120 min, 1 μM (MDR1 (P-gp)) | Compound |
| --- | --- | --- | --- |
| 2 | 6.8 | 1.1 | COc1cc2nn(CC3CCOC3)cc2cc1C(=O)Nc1cccc(C(F)F)n1 (centres unmarked) [Example 11, N-(6-(difluoromethyl)pyridin-2-yl)-6-methoxy-2-((tetrahydrofuran-3-yl)methyl)-2H-indazole-5-carboxamide] |
| 26 |  | 0.9 | COCCn1cc2cc(C(=O)Nc3cccc(C(F)F)n3)c(OC)cc2n1 [Example 10, N-(6-(difluoromethyl)pyridin-2-yl)-6-methoxy-2-(2-methoxyethyl)-2H-indazole-5-carboxamide] |
| 2 | 5.5 | 1.4 | COc1cc2nn(CCC(C)(C)OC)cc2cc1C(=O)Nc1cccc(C(F)F)n1 [Example 12, N-(6-(difluoromethyl)pyridin-2-yl)-6-methoxy-2-(3-methoxy-3-methylbutyl)-2H-indazole-5-carboxamide] |
